# Data taken from patent US20190209501A1, “COMPOSITIONS AND METHODS OF USE OF BETA-HYDROXY-BETA-METHYLBUTYRATE (HMB) […] IN[…]” (Texas Tech University Office of Research Commercialization, priority 2018, published 2019).
# “Also recorded” adds a separate entry of the source.
# Columns and labels:
# [1] = Resistance training workout volume; assay type: in vivo, human; conditions: for LB Volume ES (d) / LS Session Volume ES (d) / UB Session Volume ES (d) / UB Volume ES (d): effect size; for LB Volume Δ / LB Volume Δ (%) / LS Session Volume Δ / LS Session Volume Δ (%) / UB Session Volume Δ / UB Session Volume Δ (%) / UB Volume Δ / UB Volume Δ (%): first to second 4 weeks
# Description: All groups completed 8 weeks of supervised RT in conjunction with the assigned dietary and supplementation programs. Training took place within the research laboratories under direct supervision. RT sessions were completed on 3 nonconsecutive days each week (i.e. Mondays, Wednesdays and Fridays), and upper- and lower-body sessions were alternated (Table 1).
# Participants were instructed to train to momentary muscular exhaustion for each set, and the load was adjusted as necessary to ensure compliance with the specified repetition range. The weights and repetitions completed for each set of each exercise were recorded to allow for calculation of RT volume. Sessions took place between 12:00 and 18:00. […] Following each RT session, participants from each group were provided with 25 g whey protein (Elite 100% Whey, Dymatize Enterprises, LLC, Dallas, Tex. USA).
# [2] = approximate; cited from earlier work
# [3] = Questionnaires (Mood and Feelings, Pittsburgh Sleep Quality Index, Three-Factor Eating); assay type: in vivo, human; conditions: for MFQ Δ / MFQ Δ (%) / PSQI Δ / PSQI Δ (%) / TFEQ-CR Δ / TFEQ-CR Δ (%) / TFEQ-EE Δ / TFEQ-EE Δ (%) / TFEQ-UE Δ / TFEQ-UE Δ (%): change baseline to W 8
# Description: As part of the screening procedures, participants were interviewed using a lifestyle questionnaire for determination of baseline eating and exercise habits. Participants completed follow-up lifestyle questionnaires at subsequent research visits. Additionally, participants completed the Mood and Feelings Questionnaire (38), the Pittsburgh Sleep Quality Index (39), the Three-Factor Eating Questionnaire Revised 18-item version (40) and a menstrual cycle questionnaire at each morning laboratory assessment session.
# [4] = Countermovement vertical jump (jump height); assay type: in vivo, human; conditions: for Jump Height ES (d): Cohen's d baseline vs week 8; for Jump Height Δ (%): change baseline to week 8 relative to baseline; for Jump Height Δ: week 8 minus baseline
# Description: For the CMVJ tests, participants completed eight trials while wearing their own footwear. Approximately 30 seconds rest separated each trial. Ground reaction force (GRF) data were obtained during the CMVJ using two force platforms sampled at 1 kHz (OPT464508; Advanced Mechanical Technology, Inc., Watertown, Mass. USA). Participants stood motionless with each foot positioned on a force platform and their hands on their hips before initiating the CMVJ with a countermovement action using a self-selected depth and jumping with maximum effort to achieve the highest vertical displacement possible. No instructions were provided for the landing phase except to land with each foot contacting its respective force platform from take-off and to stop downward motion and return to a motionless standing position. The raw GRF data from the two force platforms were smoothed using a fourth order low pass Butterworth digital filter with a 30 Hz cutoff frequency. The smoothed GRF from the two force platforms was then summed along the vertical axis to obtain the vertical GRF acting at the body center of mass. The start of the CMVJ was defined as the time when bodyweight was reduced by 2.5% (29). Take-off was defined as the time when the summed vertical GRF decreased below a 20 N threshold (30). Jump time was then calculated as the time elapsed between the start of the CMVJ and take-off, expressed in units of seconds. Vertical jump height was calculated using the impulse-momentum relationship and expressed in units of meters.
# [5] = Reported side effects / adverse events; assay type: in vivo, human
structure (smiles),measurement,setting,value
"CC(C)(O)CC(=O)O [TRFHMB, β-hydroxy-β-methylbutyrate]",LB Volume,"[1]; ITT, First 4 weeks",50374 ± 4107 kg
same,LS Session Volume,"[1]; ITT, First 4 weeks",8734 ± 659 kg
same,UB Session Volume,"[1]; ITT, First 4 weeks",2722 ± 210 kg
same,UB Volume,"[1]; ITT, First 4 weeks",15715 ± 1317 kg
same,LB Volume,"[1]; ITT, Second 4 weeks",56873 ± 4655 kg
same,LS Session Volume,"[1]; ITT, Second 4 weeks",10978 ± 902 kg
same,UB Session Volume,"[1]; ITT, Second 4 weeks",3336 ± 215 kg
same,UB Volume,"[1]; ITT, Second 4 weeks",17437 ± 1298 kg
same,LB Volume ES (d),[1]; ITT,0.41
same,LS Session Volume ES (d),[1]; ITT,0.79
same,UB Session Volume ES (d),[1]; ITT,0.80
same,UB Volume ES (d),[1]; ITT,0.37
same,LB Volume Δ,[1]; ITT,6499 kg
same,LB Volume Δ (%),[1]; ITT,13%
same,LS Session Volume Δ,[1]; ITT,2244 kg
same,LS Session Volume Δ (%),[1]; ITT,26%
same,UB Session Volume Δ,[1]; ITT,614 kg
same,UB Session Volume Δ (%),[1]; ITT,23%
same,UB Volume Δ,[1]; ITT,1722 kg
same,UB Volume Δ (%),[1]; ITT,11%
same,LB Volume,"[1]; PP, First 4 weeks",54729 ± 5724 kg
same,LS Session Volume,"[1]; PP, First 4 weeks",9434 ± 944 kg
same,UB Session Volume,"[1]; PP, First 4 weeks",2869 ± 303 kg
same,UB Volume,"[1]; PP, First 4 weeks",16696 ± 1851 kg
same,LB Volume,"[1]; PP, Second 4 weeks",60345 ± 6263 kg
same,LS Session Volume,"[1]; PP, Second 4 weeks",11915 ± 1281 kg
same,UB Session Volume,"[1]; PP, Second 4 weeks",3463 ± 297 kg
same,UB Volume,"[1]; PP, Second 4 weeks",17923 ± 1749 kg
same,LB Volume ES (d),[1]; PP,0.34
same,LS Session Volume ES (d),[1]; PP,0.83
same,UB Session Volume ES (d),[1]; PP,0.75
same,UB Volume ES (d),[1]; PP,0.26
same,LB Volume Δ,[1]; PP,5616 kg
same,LB Volume Δ (%),[1]; PP,10%
same,LS Session Volume Δ,[1]; PP,2481 kg
same,LS Session Volume Δ (%),[1]; PP,26%
same,UB Session Volume Δ,[1]; PP,594 kg
same,UB Session Volume Δ (%),[1]; PP,21%
same,UB Volume Δ,[1]; PP,1227 kg
same,UB Volume Δ (%),[1]; PP,7%
same,Loss of HMB to urine after HMB is fed,[2],20-50%
same,MFQ score,"[3]; ITT, Baseline, mean ± SE",1.4 ± 0.6
same,PSQI score,"[3]; ITT, Baseline, mean ± SE",3.1 ± 0.3
same,TFEQ-CR score,"[3]; ITT, Baseline, mean ± SE",17.8 ± 1
same,TFEQ-UE score,"[3]; ITT, Baseline, mean ± SE",20.0 ± 1.2
same,MFQ score,"[3]; ITT, W 4, mean ± SE",0.7 ± 0.4
same,PSQI score,"[3]; ITT, W 4, mean ± SE",3.0 ± 0.3
same,TFEQ-CR score,"[3]; ITT, W 4, mean ± SE",18.0 ± 1
same,TFEQ-EE score,"[3]; ITT, W 4, mean ± SE",4.9 ± 0.5
same,TFEQ-UE score,"[3]; ITT, W 4, mean ± SE",18.1 ± 1.4
same,MFQ score,"[3]; ITT, W 8, mean ± SE",0.4 ± 0.4
same,PSQI score,"[3]; ITT, W 8, mean ± SE",2.7 ± 0.2
same,TFEQ-CR score,"[3]; ITT, W 8, mean ± SE",18.2 ± 1.1
same,TFEQ-EE score,"[3]; ITT, W 8, mean ± SE",4.5 ± 0.6
same,TFEQ-UE score,"[3]; ITT, W 8, mean ± SE",16.3 ± 1.3
same,MFQ Δ,[3]; ITT,−1.0
same,MFQ Δ (%),[3]; ITT,−71%
same,PSQI Δ,[3]; ITT,−0.4
same,PSQI Δ (%),[3]; ITT,−13%
same,TFEQ-CR Δ,[3]; ITT,0.4
same,TFEQ-CR Δ (%),[3]; ITT,2%
same,TFEQ-EE Δ,[3]; ITT,−0.9
same,TFEQ-EE Δ (%),[3]; ITT,−17%
same,TFEQ-UE Δ,[3]; ITT,−3.7
same,TFEQ-UE Δ (%),[3]; ITT,−19%
same,MFQ (Mood and Feelings Questionnaire) score,"[3]; PP, Baseline, mean ± SE",1.1 ± 0.7
same,PSQI (Pittsburgh Sleep Quality Index) score,"[3]; PP, Baseline, mean ± SE",3.1 ± 0.3
same,"TFEQ-CR (Three-Factor Eating Questionnaire, Cognitive Restraint) score","[3]; PP, Baseline, mean ± SE",17.1 ± 1.2
same,TFEQ-EE (Emotional Eating) score,"[3]; PP, Baseline, mean ± SE",4.9 ± 0.6
same,TFEQ-UE (Uncontrolled Eating) score,"[3]; PP, Baseline, mean ± SE",18.4 ± 1.3
same,MFQ score,"[3]; PP, W 4, mean ± SE",0.6 ± 0.5
same,PSQI score,"[3]; PP, W 4, mean ± SE",2.7 ± 0.3
same,TFEQ-CR score,"[3]; PP, W 4, mean ± SE",18.3 ± 1.2
same,TFEQ-EE score,"[3]; PP, W 4, mean ± SE",4.4 ± 0.7
same,TFEQ-UE score,"[3]; PP, W 4, mean ± SE",18.7 ± 2.0
same,MFQ score,"[3]; PP, W 8, mean ± SE",0.1 ± 0.5
same,PSQI score,"[3]; PP, W 8, mean ± SE",2.6 ± 0.3
same,TFEQ-CR score,"[3]; PP, W 8, mean ± SE",18.8 ± 1.1
same,TFEQ-EE score,"[3]; PP, W 8, mean ± SE",3.7 ± 0.7
same,TFEQ-UE score,"[3]; PP, W 8, mean ± SE",15.5 ± 1.8
same,MFQ Δ,[3]; PP,−1.0
same,MFQ Δ (%),[3]; PP,−91%
same,PSQI Δ,[3]; PP,−0.5
same,PSQI Δ (%),[3]; PP,−16%
same,TFEQ-CR Δ,[3]; PP,1.7
same,TFEQ-CR Δ (%),[3]; PP,10%
same,TFEQ-EE Δ,[3]; PP,−1.2
same,TFEQ-EE Δ (%),[3]; PP,−24%
same,TFEQ-UE Δ,[3]; PP,−2.9
same,TFEQ-UE Δ (%),[3]; PP,−16%
same,Jump Height ES (d),[4]; ITT analysis,0.65
same,Jump Height Δ (%),[4]; ITT analysis,29%
same,Jump Height W 8,"[4]; ITT analysis, week 8, mean ± SE, method b87 expresses jump height in meters",0.27 ± 0.03
same,Jump Height Δ,[4]; ITT analysis,0.06
same,Jump Height ES (d),[4]; PP analysis,0.21
same,Jump Height Δ (%),[4]; PP analysis,9%
same,Jump Height Δ,[4]; PP analysis,0.02
same,Reported side effects at W4,"[5]; week 4, n=1 each",morning fatigue; also recorded: bloated stomach
same,Reported side effects at W8,"[5]; week 8, n=1",bloated stomach
